Series [1] deals with humans. The series can be described thus: tolerability of daily dose in human clinical studies. In kind it is in vivo.
Series [2] deals with vascular inflammation of carotid arteries and ascending aorta in patients with moderate to severe plaque psoriasis. The series can be described thus: 18-FDG PET/CT sub-study of phase 2 trial: vascular inflammation as target to background ratio (TBR). It is filed as in vivo, human. As to conditions: 12 weeks. The text has this: This study was a sub-study of the above phase 2, randomized, double-blind, multicenter trial, of patients (aged 18-75) with moderate to severe plaque psoriasis, see also infra at Example 3. […] In addition, patients enrolled into the sub-study had to have the presence or history of one of the following: non-insulin dependent diabetes mellitus (NIDDM), peripheral vascular disease (PVD), smoker, hypertension, ischemic heart disease or cerebrovascular disease; obesity (BMI ≧25), hypercholesterolemia (LDL>160 mg/dL or taking anti-hyperlipidemia treatment), or family history of ischemic heart disease (in brother or father before age 55, in sister or mother before age 65) or at least 40 years of age with a history of psoriasis for at least 7 years. Patients were randomly assigned (1:1:1) to receive VB-201 20 mg, VB-201 80 mg or placebo for 12 weeks. The primary endpoint was the maximum TBR in the most diseased segment (MDS) of an index vessel at 12 weeks (percent change from baseline). The effect of treatment with 20 mg per day and 80 mg per day VB-201 on carotid arteries and ascending aorta inflammation was examined. Inflammation was measured by positron emission computed tomography (PET-CT) to quantify 18-fluorodeoxyglucose (18-FDG) uptake as a target to background ratio (TBR).
[…] imaging was performed following an overnight fast using a PET-CT scanner system with CT attenuation correction. 18-FDG was administered intravenously at a dose of 370 MBq and PET images were acquired approximately 90 minutes after injection. Baseline scans were evaluated and all inflammatory plaques in the left and right carotid arteries and ascending aorta were identified and totaled for each treatment group. PET scans were performed at Harvard Medical School and Massachusetts General Hospital, Boston, Mass., USA and at Translational and Molecular Imaging Institute and Department of Radiology, Mount Sinai School of Medicine, New York, N.Y., USA. All scans were analyzed by a central reader at the Mount Sinai center in New York City. The TBR was calculated from the ratio of the standard uptake values (SUV) of the target compared to background venous activity:
TBR (Target Background Ratio)=Target activity SUVTarget/SUV Background Venous Activity
The baseline and 12-week PET/CT datasets for each patient were structurally co-registered with each other, and FDG uptake was compared across each patient's images within pre-defined sections of the target vessels. For the aorta, measurements were made every 3 mm, starting 1 cm above the aortic valve annulus, continuing to the bottom of the aortic arch. For the right and left carotids, measurements were made every 3 mm, starting at the level of the carotid artery bifurcation, and continuing inferiorly 4 cm into the common carotid artery. Measurements were made in the axial plane by drawing a region of interest (ROI) around the artery wall and the maximum standardized uptake value (SUV) was recorded as the time- and dose-corrected tissue radioactivity divided by body weight. This represented the values for the target tissue. For the carotid arteries, the SUV Mean from the lumen of the jugular vein was used in at least 10 consecutive slices (at least 5 on each side). For the aorta, the background SUVMean from the atrium or SVC was used in at least 10 consecutive slices.
All statistical tests were two-sided with a significance level of 5%, unless specified otherwise, and were performed using SASS Version 9.2. Data was summarized using descriptive statistics (number of patients [N], mean, standard deviation [SD], median, minimum, and maximum).
Subjects were scanned by PET-CT to determine baseline 18-FDG uptake, and those with a TBR of at least 1.6 in either the carotid artery or the ascending aorta were selected. After screening and establishment of a baseline, eligible subjects were randomly assigned to receive 20 mg per day VB-201, 80 mg per day VB-201 or a daily placebo, for a period of 12 weeks. […]

[3] abbreviates: 80 mg group, patients not taking concomitant statins.
[4] abbreviates: patients taking statins (6 on 20 mg and 6 on 80 mg), p=0.01.

With `CCCCCCCCCCCCCCCCOC[C@H](COP(=O)([O-])OCC[N+](C)(C)C)OCCCCC(=O)O` [VB-201, 1-hexadecyl-2-(4′-carboxy)butyl-sn-glycero-3-phosphocholine], the gastrointestinal events entry in series [1] (higher dose (e.g., 160 mg/day) in multiple sub-doses e.g. 12 hours apart, each about 80 mg or less) is “largely avoided”. Also, the tolerability entry in series [1] (humans, single daily dose) is “well tolerated up to a dose of about 80 mg/day”. Besides, in series [1] (larger doses (e.g., 160 mg/day) as a single daily dose), the “gastrointestinal events (G-I intolerance, mainly nausea and vomiting)” value is “associated with certain gastrointestinal events”. Also, the “change from baseline in 18-FDG-PET MDS TBR of the index vessel” value was −7.3% in series [2] (20 mg/day, p=0.14) and −12.7% in series [2] (80 mg/day, p=0.04). In addition, the results for the “mean change from baseline of the maximum TBR in the MDS in the index vessel” value in series [2] (setting [3]) and in series [2] (setting [4]) were −0.39 and −0.74, respectively. The “percent change from baseline of the maximum TBR in the MDS in the index vessel” value in series [2] (setting [3]) was −8.84%; in series [2] (setting [4]) it was −18.48%. Besides, in series [2] (p=0.037, FIG. 5), the “dose response of TBR change across quartiles of VB-201 trough blood levels” value is listed as “A dose response was seen”. Also, the “reduction from baseline in vascular inflammation based on PET-CT measure” value stood at 12.7% in series [2] (VB-201 80 mg group, p=0.04) and 9.8% in series [2] (combined VB-201 treated group, p=0.01). For the same compound, in series [2] (one patient with breast implants, 20 mg/day, FIG. 6), the “inflammation of the ascending aorta (18-FDG uptake)” value was “inflammation of the aorta in the patient was also reduced”.

For the origin of these results see patent US20160038518A1, “METHODS FOR TREATING PSORIASIS AND VASCULAR INFLAMMATION” (VASCULAR BIOGENICS LTD., priority 2012, published 2016).
